Measurements from paper PMC12463534, “Exploring the Anticancer Properties of 4-Phenylthiazole-Based Ru(II) and Os(II) Metallacycles Featuring 1-Methylimidazole as N-Donor Functionality” (Bioinorganic Chemistry and Applications, 2025).

Columns and labels:
[1] = system: SW480 cells; assay: DCFH-DA assay, cellular ROS levels; type: cell-based, human; details: 2 h, concentration dependent
Experimental: For this approach, SW480 cells were subjected to the 2′,7′-dichlorofluorescin-diacetate (DCFH-DA) assay.
SW480 colon adenocarcinoma cells were trypsinized for 5 min in a humidified incubator at 37°C and under a 5% CO2 atmosphere. Supplemented MEM was added to stop trypsinization, and cells were centrifuged for 3 min at 1200 rpm (Heraeus Megafuge 1.0R). After cell counting, SW480 cells were seeded in 100-μL aliquots in densities of 2.5 × 10^4 cells/well into 96-well clear flat-bottom microplates (CytoOne, TC-treated, from Starlab). After incubation for 24 h, cells were washed with 200 μL of Hanks' balanced salt solution (HBSS; Sigma-Aldrich; supplemented with 1% heat-inactivated FCS). […] After washing cells with 200 μL of supplemented HBSS, serially diluted test compounds in phenol-red-free Opti-MEM (Gibco), supplemented with 1% heat-inactivated FCS, were added in 200-μl triplicates and tert-butyl hydroperoxide (TBHP) was applied as positive control. […] Blank-corrected values were calculated relative to negative controls (treated with drug-free supplemented Opti-MEM) from three independent experiments.

[2] = system: CT26 tumor; assay: Anticancer activity in CT26 tumor-bearing BALB/c mice; type: in vivo; details: i.p. 50 mg/kg, 5 times a week for two weeks, did not reach statistical significance
Experimental: Figure 5 Anticancer activity of 1c and 3c in vivo. CT26-bearing BALB/c mice were treated i.p. with 50 mg/kg for five consecutive days for 2 weeks. (a) Impact on tumor growth; data are presented as mean ± SEM. […] On Day 15, most of the animals were sacrificed and tissues collected for further analyses. Of each group, 4 animals were kept to assess the impact on overall survival, which is shown in (b). Statistical significance was tested by log-rank test and Mantel–Cox post-test, ^∗p < 0.01. (c) The ruthenium levels measured by ICP-MS in the collected tissue samples of the mice, which were sacrificed 2 h after the last treatment.
(§1) CT26 cells (5 × 10^5 cells in 50-μL serum-free medium) were injected subcutaneously (s.c.) into the right flank of 8–16-week-old BALB/c mice (Envigo Laboratories, San Pietro Al Natisone, Italy). After 3 days, therapy treatment started on five consecutive days for 2 weeks. Animals were treated i.p. with 50 mg/kg 1c and 3c (all dissolved in 10% DMSO in 0.9% NaCl, 12 mice per group). The solvent control animals received 10% DMSO in 0.9% NaCl. Every day, the animals were monitored for the overall health conditions and tumor size was measured regularly by caliper measurement. Tumor volumes (mm^3) were calculated using following formula: length × width^2/2. In the overall survival arm of the experiment, mice were sacrificed by cervical dislocation in the case of a tumor length > 20 mm or tumor ulceration or a decreased body weight of ∼20%. Tumor growth and possible side effects of the treatment were evaluated by daily recording the tumor size by caliper measurement and parameters of the animal's overall health conditions. In the tissue sampling arm at the experiment, the mice were sacrificed by cervical dislocation 2 h after the last treatment. Tumors as well as organs were collected. Additionally, blood was drawn and incubated for 25 min to allow blood clotting. To isolate serum and blood pellets, the blood was centrifuged for 10 min at 17,900 g at room temperature. The supernatant characterized as serum was transferred to a new tube and centrifuged again to remove residual red blood cells. All collected samples were stored at −20°C and further processed for platinum measurements via ICP-MS.

[3] = system: G4 forming sequences (h-Telo, bcl2, hTERT, Kit1, Kit2) and dsDNA; set-up: method as in PMID 38426897; details: recent work; ref [5]; cited from earlier work
[4] = system: Balb/c mice; assay: Toxicity experiments in Balb/c mice (MTD); details: mice, i.p.
Experimental: Finally, we were interested in the anticancer activity of selected complexes of our panel in an in vivo mouse setting. Before injecting the compounds in tumor-bearing mice, toxicity experiments were performed. […] On the last day of therapy, most animals were sacrificed and tissues as well as tumors collected. Only four mice (per group) were kept to get information on the impact of the drugs on the overall survival.

[5] = system: A549 lung adenocarcinoma cells; set-up: method as in PMID 38426897; details: MTT assay, exposure time 96 h; ref [5]; read-out: 50% inhibitory concentration A549 (chlorido complexes, reference) (converted); cited from earlier work
[6] = system: CH1/PA-1 ovarian teratocarcinoma cells; set-up: method as in PMID 38426897; details: MTT assay, exposure time 96 h; ref [5]; read-out: 50% inhibitory concentration CH1 (chlorido complexes, reference) (converted); cited from earlier work
[7] = Ruthenium levels in tissues by ICP-MS; type: in vivo; details: CT26-bearing mice, 2 h after last injection
Experimental: Tumor-specific organs and blood serum, harvested from the other animals 2 h after the last injection (Figure 5(c)), were measured for the average ruthenium content by inductively coupled plasma mass spectrometry (ICP-MS) of tissue homogenates.
as §1, with “In the overall survival arm of the experiment, mice were sacrificed by cervical dislocation in the case of a tumor length > 20 mm or tumor ulceration or a decreased body weight of ∼20%.” left out
The ruthenium concentration was determined by ICP-MS analysis. Ruthenium and rhenium standards were derived from LabKings (LabKings B.V., The Netherlands). The total ruthenium content was determined with a quadrupole-based ICP-MS instrument Agilent 7800 (Agilent Technologies, Tokyo, Japan) equipped with the Agilent SPS 4 autosampler (Agilent Technologies, Tokyo, Japan) and a MicroMist nebulizer at a sample uptake rate of approximately 0.2 mL·min^−1. […] Argon was used as plasma gas (15 L·min^−1) and as carrier gas (∼1.08 L·min^−1). The integration time was set to 0.1 s, and measurements were performed in 6 replicates with 100 sweeps. Rhenium served as internal standard for ruthenium.

[8] = system: HCT116 multicellular tumor spheroids (3D); assay: Resazurin assay, HCT116 3D multicellular tumor spheroids
[9] = system: HCT116 colorectal cancer cell line (2D); assay: Resazurin assay, HCT116 2D (monolayer) culture
Experimental: Both models were investigated by the fluorimetric resazurin assay after 96-h exposure.
HCT116 colorectal carcinoma cells (RRID:CVCL_0291 from ATCC) were cultivated in McCoy's 5A medium, supplemented with 10% heat-inactivated fetal bovine serum and 4 mM L-glutamine.
For 2D experiments, HCT116 cells were harvested from culture flasks by trypsinization, seeded in 100-μL aliquots into 96-well microculture plates (CytoOne, TC-treated, from Starlab) in densities of 2 × 10^3 cells per well, and incubated for 24 h prior to exposure to the test compounds. […] Stock solutions of test compounds were prepared in DMF, which were then diluted in McCoy's 5A-supplemented medium (not to exceed a final content of 0.5% v/v of organic solvent in the test plates), and serial dilutions were added in aliquots of 100 μL per well. […] After incubation for 4 h, fluorescence was measured with a microplate reader (Bio-Tek, SynergyHT) at a wavelength of 530 nm, additionally using a reference wavelength of 620 nm.

[10] = system: SW480 colon adenocarcinoma cells; set-up: method as in PMID 38426897; details: MTT assay, exposure time 96 h; ref [5]; read-out: 50% inhibitory concentration SW480 (chlorido complexes, reference) (converted); cited from earlier work

CS(=O)(=O)c1ccc(-c2cscn2)[c]([Ru][Cl])c1.Cc1ccc(C(C)C)cc1 [Compound 1c]
Effect on intracellular ROS levels [1]: constantly decrease ROS levels with increasing concentrations | Impact on tumor volume (anticancer activity) [2]: slight anticancer activity | Stabilization of DNA G-quadruplex structures [3]: stabilize DNA G-quadruplex (G4) structures | Tolerated dose [4]: at least 50 mg/kg | IC50 [5]: 12 µM | IC50 [6]: 1.6 µM | Kidney ruthenium levels, fold higher compared to 3c [7]: 10 fold | Ruthenium level in liver [7]: ~20 mg/kg | Ruthenium level in tumor [7]: ~1 mg/kg | Enhancement of cytotoxic activity by mesylation (1c vs 1a), 3D ([8]; HCT116 3D): 3.5 fold | IC50 ([8]; read-out: IC50 3D, HCT116 3D spheroids, resazurin assay, 96 h exposure): 8.9 ± 2.1 µM | Increase of cytotoxic activity by mesylation (1c vs 1a), 2D [9]: 2.8 times | IC50 ([9]; read-out: IC50 2D, resazurin assay, 96 h exposure): 6.5 ± 1.3 µM | IC50 [10]: 5.1 µM
